{"source": "PubChem BioAssay AID1845202", "about": "(Molecular Pharmacology Branch, DTP, NCI, 2023)", "test_system": "DMS 114 tumor spheroids, viability % test/control", "assay": "Anticancer human tumor DMS 114 cell line growth inhibition;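 as to all read-outs here: spheroids exposed to compounds for 7 days before read-out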;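 as to viability, T/C: luminescence used as a proxy for viable cells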", "conditions": "spheroids with HUVEC and MSC; for viability, T/C: stronger effect = lower value", "summary_of_the_method": "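Complex spheroids of malignant cells with endothelial cells and mesenchymal stem cells; agents alone or combined, from near clinical Cmax (or 10 microM if unknown) down in half-log steps, 0.25% DMSO final.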", "data": [{"smiles": "COc1cc2c(cc1O)CCNC21CSC2c3c(OC(C)=O)c(C)c4c(c3C(COC1=O)N1C(O)C3Cc5cc(C)c(OC)c(O)c5C(C21)N3C)OCO4", "note": "(stereo unspecified)", "values": [{"measurement": "viability, T/C", "setting": "compound 30 pM", "result": "102% [middle of 10 runs]"}, {"measurement": "viability, T/C", "setting": "compound 94.9 pM", "result": "102% [middle of 10 runs]"}, {"measurement": "viability, T/C", "setting": "compound 0.0003 µM", "result": "41.4% [middle of 10 runs]"}, {"measurement": "viability, T/C", "setting": "compound 0.000949 µM", "result": "4.04% [middle of 10 runs]"}, {"measurement": "viability, T/C", "setting": "compound 0.003 µM", "result": "0.21% [middle of 7 runs]"}, {"measurement": "IC50", "setting": "compound alone, run of 10/25/2019", "result": "0.253 nM [middle of 10 runs]"}]}, {"smiles": "Cn1ncnc1[C@H]1c2n[nH]c(=O)c3cc(F)cc(c23)N[C@@H]1c1ccc(F)cc1", "note": "+ Cn1nnc2c(C(N)=O)ncn2c1=O", "values": [{"measurement": "IC50", "setting": "curve of first compound, second compound 1 µM", "result": 696, "unit": "nM"}, {"measurement": "IC50", "setting": "curve of first compound, second compound 3.16 µM", "result": 646, "unit": "nM"}, {"measurement": "IC50", "setting": "curve of first compound, second compound 10 µM", "result": 208, "unit": "nM"}, {"measurement": "IC50", "setting": "curve of first compound, second compound 31.6 µM", "result": "< 9.49", "unit": "nM"}, {"measurement": "IC50", "setting": "curve of first compound, second compound 100 µM", "result": "< 9.49", "unit": "nM"}, {"measurement": "viability, T/C", "setting": "second compound 1 µM, first compound 0.00949 µM", "result": 106, "unit": "%"}, {"measurement": "viability, T/C", "setting": "second compound 1 µM, first compound 0.03 µM", "result": 107, "unit": "%"}, {"measurement": "viability, T/C", "setting": "second compound 1 µM, first compound 0.0949 µM", "result": 98.8, "unit": "%"}, {"measurement": "viability, T/C", "setting": "second compound 1 µM, first compound 0.3 µM", "result": 82.6, "unit": "%"}, {"measurement": "viability, T/C", "setting": "second compound 1 µM, first compound 0.949 µM", "result": 37.9, "unit": "%"}, {"measurement": "viability, T/C", "setting": "second compound 1 µM, first compound 3 µM", "result": 11.6, "unit": "%"}, {"measurement": "viability, T/C", "setting": "second compound 3.16 µM, first compound 0.00949 µM", "result": 112, "unit": "%"}, {"measurement": "viability, T/C", "setting": "second compound 3.16 µM, first compound 0.03 µM", "result": 107, "unit": "%"}, {"measurement": "viability, T/C", "setting": "second compound 3.16 µM, first compound 0.0949 µM", "result": 97.2, "unit": "%"}, {"measurement": "viability, T/C", "setting": "second compound 3.16 µM, first compound 0.3 µM", "result": 77.2, "unit": "%"}, {"measurement": "viability, T/C", "setting": "second compound 3.16 µM, first compound 0.949 µM", "result": 36, "unit": "%"}, {"measurement": "viability, T/C", "setting": "second compound 3.16 µM, first compound 3 µM", "result": 14, "unit": "%"}, {"measurement": "viability, T/C", "setting": "second compound 10 µM, first compound 0.00949 µM", "result": 111, "unit": "%"}, {"measurement": "viability, T/C", "setting": "second compound 10 µM, first compound 0.03 µM", "result": 82.7, "unit": "%"}, {"measurement": "viability, T/C", "setting": "second compound 10 µM, first compound 0.0949 µM", "result": 65.8, "unit": "%"}, {"measurement": "viability, T/C", "setting": "second compound 10 µM, first compound 0.3 µM", "result": 43.4, "unit": "%"}, {"measurement": "viability, T/C", "setting": "second compound 10 µM, first compound 0.949 µM", "result": 27.1, "unit": "%"}, {"measurement": "viability, T/C", "setting": "second compound 10 µM, first compound 3 µM", "result": 16.2, "unit": "%"}, {"measurement": "viability, T/C", "setting": "second compound 31.6 µM, first compound 0.00949 µM", "result": 51.5, "unit": "%"}, {"measurement": "viability, T/C", "setting": "second compound 31.6 µM, first compound 0.03 µM", "result": 39.3, "unit": "%"}, {"measurement": "viability, T/C", "setting": "second compound 31.6 µM, first compound 0.0949 µM", "result": 32.4, "unit": "%"}, {"measurement": "viability, T/C", "setting": "second compound 31.6 µM, first compound 0.3 µM", "result": 27.6, "unit": "%"}, {"measurement": "viability, T/C", "setting": "second compound 31.6 µM, first compound 0.949 µM", "result": 20.7, "unit": "%"}, {"measurement": "viability, T/C", "setting": "second compound 31.6 µM, first compound 3 µM", "result": 10.8, "unit": "%"}, {"measurement": "viability, T/C", "setting": "second compound 100 µM, first compound 0.00949 µM", "result": 24.1, "unit": "%"}, {"measurement": "viability, T/C", "setting": "second compound 100 µM, first compound 0.03 µM", "result": 23.1, "unit": "%"}, {"measurement": "viability, T/C", "setting": "second compound 100 µM, first compound 0.0949 µM", "result": 22.3, "unit": "%"}, {"measurement": "viability, T/C", "setting": "second compound 100 µM, first compound 0.3 µM", "result": 19.4, "unit": "%"}, {"measurement": "viability, T/C", "setting": "second compound 100 µM, first compound 0.949 µM", "result": 14.9, "unit": "%"}, {"measurement": "viability, T/C", "setting": "second compound 100 µM, first compound 3 µM", "result": 9.45, "unit": "%"}]}, {"smiles": "CNCc1ccc(-c2cc(-c3nc(-c4ccc(S(=O)(=O)C(C)C)cc4)cnc3N)on2)cc1", "note": "+ COc1cc2c(cc1O)CCNC21CSC2c3c(OC(C)=O)c(C)c4c(c3C(COC1=O)N1C(O)C3Cc5cc(C)c(OC)c(O)c5C(C21)N3C)OCO4", "values": [{"measurement": "IC50", "setting": "curve of first compound, second compound 30 pM", "result": 115, "unit": "nM"}, {"measurement": "IC50", "setting": "curve of first compound, second compound 94.9 pM", "result": 65, "unit": "nM"}, {"measurement": "IC50", "setting": "curve of first compound, second compound 0.0003 µM", "result": "< 9.49", "unit": "nM"}, {"measurement": "IC50", "setting": "curve of first compound, second compound 0.000949 µM", "result": "< 9.49", "unit": "nM"}, {"measurement": "IC50", "setting": "curve of first compound, second compound 0.003 µM", "result": "< 9.49", "unit": "nM"}, {"measurement": "viability, T/C", "setting": "second compound 30 pM, first compound 0.00949 µM", "result": 96.4, "unit": "%"}, {"measurement": "viability, T/C", "setting": "second compound 30 pM, first compound 0.03 µM", "result": 94.3, "unit": "%"}, {"measurement": "viability, T/C", "setting": "second compound 30 pM, first compound 0.0949 µM", "result": 53.1, "unit": "%"}, {"measurement": "viability, T/C", "setting": "second compound 30 pM, first compound 0.3 µM", "result": 20.8, "unit": "%"}, {"measurement": "viability, T/C", "setting": "second compound 30 pM, first compound 0.949 µM", "result": 2.84, "unit": "%"}, {"measurement": "viability, T/C", "setting": "second compound 30 pM, first compound 3 µM", "result": 0.19, "unit": "%"}, {"measurement": "viability, T/C", "setting": "second compound 94.9 pM, first compound 0.00949 µM", "result": 93.9, "unit": "%"}, {"measurement": "viability, T/C", "setting": "second compound 94.9 pM, first compound 0.03 µM", "result": 70.5, "unit": "%"}, {"measurement": "viability, T/C", "setting": "second compound 94.9 pM, first compound 0.0949 µM", "result": 41.3, "unit": "%"}, {"measurement": "viability, T/C", "setting": "second compound 94.9 pM, first compound 0.3 µM", "result": 12.2, "unit": "%"}, {"measurement": "viability, T/C", "setting": "second compound 94.9 pM, first compound 0.949 µM", "result": 2.28, "unit": "%"}, {"measurement": "viability, T/C", "setting": "second compound 94.9 pM, first compound 3 µM", "result": 0.17, "unit": "%"}, {"measurement": "viability, T/C", "setting": "second compound 0.0003 µM, first compound 0.00949 µM", "result": 38.6, "unit": "%"}, {"measurement": "viability, T/C", "setting": "second compound 0.0003 µM, first compound 0.03 µM", "result": 28.3, "unit": "%"}, {"measurement": "viability, T/C", "setting": "second compound 0.0003 µM, first compound 0.0949 µM", "result": 17.8, "unit": "%"}, {"measurement": "viability, T/C", "setting": "second compound 0.0003 µM, first compound 0.3 µM", "result": 11.7, "unit": "%"}, {"measurement": "viability, T/C", "setting": "second compound 0.0003 µM, first compound 0.949 µM", "result": 1.89, "unit": "%"}, {"measurement": "viability, T/C", "setting": "second compound 0.0003 µM, first compound 3 µM", "result": 0.25, "unit": "%"}, {"measurement": "viability, T/C", "setting": "second compound 0.000949 µM, first compound 0.00949 µM", "result": 4.46, "unit": "%"}, {"measurement": "viability, T/C", "setting": "second compound 0.000949 µM, first compound 0.03 µM", "result": 4.77, "unit": "%"}, {"measurement": "viability, T/C", "setting": "second compound 0.000949 µM, first compound 0.0949 µM", "result": 3.57, "unit": "%"}, {"measurement": "viability, T/C", "setting": "second compound 0.000949 µM, first compound 0.3 µM", "result": 3.71, "unit": "%"}, {"measurement": "viability, T/C", "setting": "second compound 0.000949 µM, first compound 0.949 µM", "result": 0.67, "unit": "%"}, {"measurement": "viability, T/C", "setting": "second compound 0.000949 µM, first compound 3 µM", "result": 0.15, "unit": "%"}, {"measurement": "viability, T/C", "setting": "second compound 0.003 µM, first compound 0.00949 µM", "result": 0.28, "unit": "%"}, {"measurement": "viability, T/C", "setting": "second compound 0.003 µM, first compound 0.03 µM", "result": 0.28, "unit": "%"}, {"measurement": "viability, T/C", "setting": "second compound 0.003 µM, first compound 0.0949 µM", "result": 0.31, "unit": "%"}, {"measurement": "viability, T/C", "setting": "second compound 0.003 µM, first compound 0.3 µM", "result": 0.26, "unit": "%"}, {"measurement": "viability, T/C", "setting": "second compound 0.003 µM, first compound 0.949 µM", "result": 0.23, "unit": "%"}, {"measurement": "viability, T/C", "setting": "second compound 0.003 µM, first compound 3 µM", "result": 0.25, "unit": "%"}]}]}
